Experimental findings from ChEMBL document CHEMBL1128494, “Synthesis and sigma binding properties of 1'- and 3'-halo- and 1',3'-dihalo-N-normetazocine analogues” (J Med Chem, 1995) are described below.

Sequence of Sigma non-opioid intracellular receptor 1 (Rattus norvegicus) (Q9R0C9 whole entry): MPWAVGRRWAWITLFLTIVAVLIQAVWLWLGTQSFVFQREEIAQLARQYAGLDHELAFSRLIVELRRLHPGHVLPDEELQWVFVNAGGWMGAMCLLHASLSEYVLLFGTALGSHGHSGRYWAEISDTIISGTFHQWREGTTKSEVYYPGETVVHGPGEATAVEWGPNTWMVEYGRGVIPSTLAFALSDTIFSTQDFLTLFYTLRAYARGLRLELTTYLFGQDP

The experiment addresses Sigma non-opioid intracellular receptor 1 (Rattus norvegicus) (UniProt Q9R0C9). Kind of experiment: Ratio of the binding affinity against Sigma receptor type 2 to that of Sigma receptor type 1.
As for `CC1C2Cc3cc(Br)c(O)cc3C1(C)CCN2Cc1ccccc1` (stereo unspecified), the Ratio was determined as 18.
The result for `CC1C2Cc3cc(Cl)c(O)c(Cl)c3C1(C)CCN2Cc1ccccc1` (stereo unspecified) reads 30.
As for `CC1C2Cc3ccc(O)cc3C1(C)CCN2Cc1ccccc1` (stereo unspecified), the figure is 2600; as for `CC(C)=CCN1CCC2(C)c3c(cc(Br)c(O)c3Br)CC1C2C` (single isomer, unassigned; (+)), 1.8; as for `CC(C)=CCN1CCC2(C)c3cc(O)c(Br)cc3CC1C2C` (single isomer, unassigned; (+)), 3.2.
Take `CC1C2Cc3cc(Br)c(O)c(Br)c3C1(C)CCN2Cc1ccccc1` (single isomer, unassigned; (+)): the Ratio came to 28.
The result for `CC1C2Cc3ccc(O)c(Br)c3C1(C)CCN2Cc1ccccc1` (single isomer, unassigned; (+)) reads 200.
Consider `CC1C2Cc3ccc(O)c(Cl)c3C1(C)CCN2Cc1ccccc1` (single isomer, unassigned; (+)), for which the Ratio was determined as 440.
As for `CC(C)=CCN1CCC2(C)c3cc(O)c(Br)cc3CC1C2C` (single isomer, unassigned; (-)), the figure is 1.9.
As for `CC(C)=CCN1CCC2(C)c3cc(O)c(I)cc3CC1C2C` (stereo in doubt; (+)-5b), the figure is 0.24.
As for `CC(C)=CCN1CCC2(C)c3cc(O)c(I)cc3CC1C2C` (stereo in doubt; (-)-5b), the figure is 2.7.
